Results from patent publication US20160046616A1, “NRF2 SMALL MOLECULE INHIBITORS FOR CANCER THERAPY” (THE JOHNS HOPKINS UNIVERSITY, priority 2013, published 2016).
Like-named read-outs stand apart in the source and are kept apart here.

What was measured:
[1] = test system: H1437 NRF2-ARE-Fluc stable cell line; assay: H1437 Nrf2 assay: NRF2-ARE firefly luciferase reporter gene assay; assay type: cell-based; settings: read-out: Potency of inhibition, H1437
From the text: H1437 is another NSCLC cell line with LOF Keap1 activity and constitutive translocation of NRF2 into the nucleus. A firefly luciferase reporter construct driven by a minimal promoter of NRF2-specific ARE is stably expressed in the H1437 cells. This cell line was used as a confirmation assay to make sure hits identified from primary screening and that passed counterscreen assays worked in different cell types with a constitutively active NRF2 pathway (deficiency in Keap1).
This assay was very similar to the primary assay except that the cell line was changed. […] The final concentration of DMSO was maintained at 0.46%. Control compounds Budesonide and Staurosporine were both added at a concentration of 2 mM and Budesonide was also added as a 1:10 titration, starting at 200 μM, to achieve dose-response. After an 18-24 hour incubation at 37° C., 95% humidity, and 5% CO2, 1 μL of 5× CellTiter-Fluor non-lytic cell viability assay reagent (Promega, Madison Wis.) was added into the each well of the plates. The plates were then incubated for 30 minutes at room temperature before they were read on a ViewLux plate imager (Perkin Elmer, Waltham Mass.) using an excitation wavelength of 405 nm and an emission wavelength of 525 nm.
(§1) Representative compounds were assayed to assess the potency of inhibition in an A549 NRF2-ARE-Fluc stable cell line (A549 Nrf2 assay), in an H838 NRF2-ARE-Fluc stable cell line (H838 Nrf2 assay), and in an H1437 NRF2-ARE-Fluc stable cell line (H1437 Nrf2 assay) (see Table 3).

[2] = test system: A549 NRF2-ARE-Fluc stable cell line; assay: A549 Nrf2 assay: NRF2-ARE firefly luciferase reporter gene assay; assay type: cell-based; settings: read-out: Potency of inhibition, A549
From the text: A549, the parental cell line, is a non-small-cell lung cancer (NSCLC) cell line with loss-of-function (LOF) Keap1 activity, thus NRF2 transcription factor constitutively translocates into the nucleus to activate the expression of downstream target genes of NRF2. A firefly luciferase reporter (Fluc) construct driven by a minimal promoter of NRF2-specific anti-oxidant responsive element (ARE) is stably expressed in the A549 cells. Compounds that reduce the translocation of NRF2 into the nucleus or prevent the interaction between NRF2 and ARE will lead to a decrease in luciferase activity.
The final concentration of DMSO was maintained at 0.46%. Control compounds Budesonide and Staurosporine were both added at a concentration of 2 mM and Budesonide also was added as a 1:10 titration, starting at 200 μM, to achieve dose-response. After an 18-24 hour incubation at 37° C., 95% humidity, and 5% CO2, 1 μL of 5× CellTiter-Fluor non-lytic cell viability assay reagent (Promega, Madison, Wis.) was added into the each well of the plates. The plates were then incubated for 30 minutes at room temperature before they were read on a ViewLux plate imager (Perkin Elmer, Waltham, Mass.) using an excitation wavelength of 405 nm and an emission wavelength of 525 nm.
A cell based reporter assay approach was used for the identification of agents that could inhibit Nrf2 mediated gene expression (FIG. 1). A549-ARE-luciferase cells express the luciferase gene driven by a minimal promoter and an enhancer element containing an NRF2 binding site (Antioxidant Response Element, ARE).
as §1

[3] = Homo sapiens, NCI-H1437, H1437 NRF2-ARE-Fluc stable cell line
[4] = H1437 NRF2-ARE-Fluc stable cell line

Cc1ccccc1C(=O)N1CCc2cc(Br)ccc21 [Compound 107, (5-bromoindolin-1-yl)(o-tolyl)methanone]
IC50 [1, 3]: > 25 µM | IC50 ([2]; Homo sapiens): 5 to 25 µM

O=C(CCCc1ccccc1)Nc1ncc(Cc2ccc(C(F)(F)F)cc2)s1 [Compound 108]
IC50 [1, 3]: > 25 µM | IC50 ([2]; Homo sapiens): > 25 µM

Cc1ccccc1C(=O)N1CCc2cc(-c3nc(NS(=O)(=O)Cc4ccccc4)sc3C)ccc21 [Compound 109]
IC50 [1, 3]: 5 to 25 µM | IC50 ([2]; Homo sapiens): 5 to 25 µM

O=C(Nc1ncc(Cc2ccc(C(F)(F)F)cc2)s1)c1ccn(-c2ccccc2)n1 [Compound 110]
IC50 [1, 3]: 5 to 25 µM | IC50 ([2]; Homo sapiens): < 5 µM

O=C(Nc1nc2cc(C(F)(F)F)ccc2s1)c1ccc(-c2cccc([N+](=O)[O-])c2)o1 [Compound 111]
IC50 [1, 3]: > 25 µM | IC50 ([2]; Homo sapiens): > 25 µM

COc1ccc(CC(=O)Nc2nc(-c3ccc4c(c3)CCN4C(=O)c3ccccc3C)c(C)s2)cn1 [Compound 112]
IC50 [1, 3]: < 5 µM | IC50 ([2]; Homo sapiens): < 5 µM

CCc1ccccc1C(=O)N1CCc2cc(-c3nc(NC(=O)Cc4ccc5c(c4)OCO5)sc3C)ccc21 [Compound 113]
IC50 [1, 3]: > 25 µM | IC50 ([2]; Homo sapiens): < 5 µM

Cc1sc(NC(=O)Cc2ccc3c(c2)OCO3)nc1-c1ccc2c(c1)CCN2C(=O)c1ccccc1OC(F)(F)F [Compound 114]
IC50 [1, 3]: > 25 µM | IC50 ([2]; Homo sapiens): < 5 µM

Cc1sc(NC(=O)Cc2ccc3c(c2)OCO3)nc1-c1ccc2c(c1)CCN2C(=O)c1ccccc1F [Compound 115]
IC50 [1, 3]: < 5 µM | IC50 ([2]; Homo sapiens): < 5 µM

Cc1sc(NC(=O)Cc2ccc3c(c2)OCO3)nc1-c1ccc2c(c1)CCN2C(=O)c1ccccc1Cl [Compound 116]
IC50 [1, 3]: > 25 µM | IC50 ([2]; Homo sapiens): < 5 µM

O=C(Nc1ncc(Cc2ccc(C(F)(F)F)cc2)s1)c1ccn(-c2cccc([N+](=O)[O-])c2)n1 [Compound 117]
IC50 [1, 3]: > 25 µM | IC50 ([2]; Homo sapiens): < 5 µM

O=C(Nc1ncc(Cc2ccc(C(F)(F)F)cc2)s1)c1c[nH]c(-c2ccccc2)n1 [Compound 118]
IC50 [1, 3]: > 25 µM | IC50 ([2]; Homo sapiens): 5 to 25 µM

COc1ccccc1C(=O)N1CCc2cc(-c3nc(NC(=O)Cc4ccc5c(c4)OCO5)sc3C)ccc21 [Compound 120]
IC50 [1, 3]: > 25 µM | IC50 ([2]; Homo sapiens): < 5 µM

Cc1sc(NC(=O)Cc2ccc3c(c2)OCO3)nc1-c1ccc2c(c1)CCN2C(=O)c1ccccc1C(F)(F)F [Compound 121]
IC50 [1, 3]: > 25 µM | IC50 ([2]; Homo sapiens): < 5 µM

Cc1ccccc1S(=O)(=O)N1CCc2cc(-c3nc(NC(=O)Cc4ccccc4F)sc3C)ccc21 [Compound 122]
IC50 [1, 3]: < 5 µM | IC50 ([2]; Homo sapiens): < 5 µM

Cc1ccccc1S(=O)(=O)N1CCc2cc(-c3nc(NC(=O)Cc4ccccc4Cl)sc3C)ccc21 [Compound 123]
IC50 [1, 3]: > 25 µM | IC50 ([2]; Homo sapiens): < 5 µM

Cc1ccccc1S(=O)(=O)N1CCc2cc(-c3nc(NC(=O)Cc4cccc(F)c4)sc3C)ccc21 [Compound 124]
IC50 [1, 4]: < 5 µM | IC50 ([2]; Homo sapiens): < 5 µM

Cc1ccccc1S(=O)(=O)N1CCc2cc(-c3nc(NC(=O)Cc4cccc(Cl)c4)sc3C)ccc21 [Compound 125]
IC50 [1, 3]: 5 to 25 µM | IC50 ([2]; Homo sapiens): < 5 µM

Cc1ccccc1S(=O)(=O)N1CCc2cc(-c3nc(NC(=O)Cc4cccc(F)c4)sc3C)ccc21 [Compound 126]
IC50 [1, 4]: > 25 µM | IC50 [2]: < 5 µM

Cc1ccccc1S(=O)(=O)N1CCc2cc(-c3nc(NC(=O)Cc4ccccn4)sc3C)ccc21 [Compound 127]
IC50 [1, 3]: 5 to 25 µM | IC50 ([2]; Homo sapiens): 5 to 25 µM

Cc1ccccc1CC(=O)Nc1nc(-c2ccc3c(c2)CCN3S(=O)(=O)c2ccccc2C)c(C)s1 [Compound 128]
IC50 [1, 3]: < 5 µM | IC50 ([2]; Homo sapiens): < 5 µM

Cc1ccccc1S(=O)(=O)N1CCc2cc(-c3nc(NC(=O)Cc4ccccc4C(F)(F)F)sc3C)ccc21 [Compound 129]
IC50 [1, 3]: > 25 µM | IC50 ([2]; Homo sapiens): < 5 µM

Cc1ccccc1S(=O)(=O)N1CCc2cc(-c3nc(NC(=O)Cc4cccnc4)sc3C)ccc21 [Compound 130]
IC50 [1, 3]: < 5 µM | IC50 ([2]; Homo sapiens): < 5 µM

Cc1cccc(CC(=O)Nc2nc(-c3ccc4c(c3)CCN4S(=O)(=O)c3ccccc3C)c(C)s2)c1 [Compound 131]
IC50 [1, 3]: 5 to 25 µM | IC50 ([2]; Homo sapiens): 5 to 25 µM

Cc1ccccc1S(=O)(=O)N1CCc2cc(-c3nc(NC(=O)Cc4cccc(C(F)(F)F)c4)sc3C)ccc21 [Compound 132]
IC50 [1, 3]: 5 to 25 µM | IC50 ([2]; Homo sapiens): 5 to 25 µM

Cc1ccc(CC(=O)Nc2nc(-c3ccc4c(c3)CCN4S(=O)(=O)c3ccccc3C)c(C)s2)cc1 [Compound 133]
IC50 [1, 3]: > 25 µM | IC50 ([2]; Homo sapiens): < 5 µM

Cc1ccccc1S(=O)(=O)N1CCc2cc(-c3nc(NC(=O)Cc4ccc(C(F)(F)F)cc4)sc3C)ccc21 [Compound 134]
IC50 [1, 3]: > 25 µM | IC50 ([2]; Homo sapiens): < 5 µM

Cc1ccccc1S(=O)(=O)N1CCc2cc(-c3nc(NC(=O)Cc4ccc(Cl)cc4)sc3C)ccc21 [Compound 135]
IC50 [1, 3]: 5 to 25 µM | IC50 ([2]; Homo sapiens): < 5 µM

Cc1ccccc1S(=O)(=O)N1CCc2cc(-c3nc(NC(=O)Cc4ccncc4)sc3C)ccc21 [Compound 136]
IC50 [1, 3]: < 5 µM | IC50 ([2]; Homo sapiens): < 5 µM

O=C(Nc1cccc(Nc2ccccc2)c1)c1ccc(-c2cccc([N+](=O)[O-])c2)o1 [Compound 137]
IC50 [1, 3]: > 25 µM | IC50 ([2]; Homo sapiens): < 5 µM

Cc1sc(NC(=O)Cc2ccc3c(c2)OCO3)nc1-c1ccc2c(c1)CCN2C(=O)c1ccccc1C(C)C [Compound 138]
IC50 [1, 3]: > 25 µM | IC50 ([2]; Homo sapiens): < 5 µM

Cc1ncccc1C(=O)N1CCc2cc(-c3nc(NC(=O)Cc4ccc5c(c4)OCO5)sc3C)ccc21 [Compound 139]
IC50 [1, 3]: < 5 µM | IC50 ([2]; Homo sapiens): 5 to 25 µM

Cc1ccncc1C(=O)N1CCc2cc(-c3nc(NC(=O)Cc4ccc5c(c4)OCO5)sc3C)ccc21 [Compound 140]
IC50 [1, 3]: < 5 µM | IC50 ([2]; Homo sapiens): < 5 µM

Cc1cccnc1C(=O)N1CCc2cc(-c3nc(NC(=O)Cc4ccc5c(c4)OCO5)sc3C)ccc21 [Compound 141]
IC50 [1, 3]: > 25 µM | IC50 ([2]; Homo sapiens): < 5 µM

O=C(Nc1cccc(Cc2ccccc2)n1)c1ccc(-c2cccc([N+](=O)[O-])c2)o1 [Compound 142]
IC50 [1, 3]: > 25 µM | IC50 ([2]; Homo sapiens): 5 to 25 µM

O=C(Nc1cc(Cc2ccccc2)ccn1)c1ccc(-c2cccc([N+](=O)[O-])c2)o1 [Compound 150]
IC50 [1, 3]: > 25 µM | IC50 ([2]; Homo sapiens): < 5 µM

O=C(Nc1ncc(Cc2ccc(C(F)(F)F)cc2)s1)c1ncc(-c2ccccc2)[nH]1 [Compound 151]
IC50 [1, 3]: > 25 µM | IC50 ([2]; Homo sapiens): > 25 µM

Cc1nc(C(=O)N2CCc3cc(-c4nc(NC(=O)Cc5ccc6c(c5)OCO6)sc4C)ccc32)c(C)o1 [Compound 157]
IC50 [1, 3]: < 5 µM | IC50 ([2]; Homo sapiens): < 5 µM

Cc1sc(NC(=O)Cc2ccc3c(c2)OCO3)nc1-c1ccc2c(c1)CCN2C(=O)c1cnoc1C(C)C [Compound 158]
IC50 [1, 3]: > 25 µM | IC50 ([2]; Homo sapiens): < 5 µM

Cc1occc1C(=O)N1CCc2cc(-c3nc(NC(=O)Cc4ccc5c(c4)OCO5)sc3C)ccc21 [Compound 159]
IC50 [1, 3]: < 5 µM | IC50 ([2]; Homo sapiens): < 5 µM

Cc1onc(-c2ccccc2)c1C(=O)N1CCc2cc(-c3nc(NC(=O)Cc4ccc5c(c4)OCO5)sc3C)ccc21 [Compound 160]
IC50 [1, 3]: > 25 µM | IC50 ([2]; Homo sapiens): > 25 µM

Cc1sc(NC(=O)Cc2ccc3c(c2)OCO3)nc1-c1ccc2c(c1)CCN2C(=O)c1cncn1C [Compound 161]
IC50 [1, 3]: < 5 µM | IC50 ([2]; Homo sapiens): < 5 µM

CC1=C(C(=O)N2CCc3cc(-c4nc(NC(=O)Cc5ccc6c(c5)OCO6)sc4C)ccc32)OCCO1 [Compound 162]
IC50 [1, 3]: < 5 µM | IC50 ([2]; Homo sapiens): < 5 µM

O=C(Nc1ncc(Cc2ccc(C(F)(F)F)cc2)s1)c1cn(-c2ccccc2)cn1 [Compound 164]
IC50 [1, 3]: > 25 µM | IC50 ([2]; Homo sapiens): < 5 µM

O=C(Nc1cncc(Cc2ccccc2)c1)c1ccc(-c2cccc([N+](=O)[O-])c2)o1 [Compound 170]
IC50 [1, 3]: 5 to 25 µM | IC50 ([2]; Homo sapiens): 5 to 25 µM

O=C(Nc1ncc(Cc2ccc(C(F)(F)F)cc2)s1)c1ccn(-c2cccnc2)n1 [Compound 175]
IC50 [1, 3]: 5 to 25 µM | IC50 ([2]; Homo sapiens): 5 to 25 µM

O=C(Nc1ccnc(Cc2ccccc2)c1)c1ccc(-c2cccc([N+](=O)[O-])c2)o1 [Compound 177]
IC50 [1, 3]: 5 to 25 µM | IC50 ([2]; Homo sapiens): 5 to 25 µM

Cc1sc(NC(=O)Cc2ccc3c(c2)OCO3)nc1-c1ccc2c(c1)CCN2C(=O)CN(C)C [Compound 180]
IC50 [1, 3]: > 25 µM | IC50 ([2]; Homo sapiens): 5 to 25 µM
